Test [1] concerns the target Serine/threonine-protein kinase 38 (Homo sapiens) (UniProt Q15208). In words: Inhibition of NDR1 Lys1 labeling site in human Huh-7 cell lysate at 1 uM by KiNativ Profiling analysis relative to control. The test is classed as subcellular.
The target of test [2] is Serine/threonine-protein kinase 38-like (Homo sapiens) (UniProt Q9Y2H1). Nature of the test: Inhibition of NDR2 Lys1 labeling site in human Huh-7 cell lysate at 1 uM by KiNativ Profiling analysis relative to control. The test is classed as subcellular.
In test [3] the target is T1, Acylglycerol kinase, mitochondrial (Homo sapiens) (UniProt Q53H12).
T1 sequence (whole entry): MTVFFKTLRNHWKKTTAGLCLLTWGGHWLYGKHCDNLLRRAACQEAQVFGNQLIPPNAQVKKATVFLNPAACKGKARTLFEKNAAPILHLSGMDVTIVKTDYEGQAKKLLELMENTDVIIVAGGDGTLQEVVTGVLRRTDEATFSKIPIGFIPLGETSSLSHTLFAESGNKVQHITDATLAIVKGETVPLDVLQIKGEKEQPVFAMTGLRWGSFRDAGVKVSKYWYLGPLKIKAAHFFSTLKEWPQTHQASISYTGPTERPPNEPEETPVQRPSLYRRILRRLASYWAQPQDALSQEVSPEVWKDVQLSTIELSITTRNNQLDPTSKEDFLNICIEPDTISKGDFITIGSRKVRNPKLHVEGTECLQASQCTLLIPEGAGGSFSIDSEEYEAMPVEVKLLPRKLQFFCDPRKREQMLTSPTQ
Nature of the test: Inhibition of AGK ATP labeling site in human A-375 cells at 5 uM by KiNativ Profiling analysis relative to control. The test is classed as cell-based.

For test [4], the target named is T2, Mixed lineage kinase domain-like protein (Homo sapiens) (UniProt Q8NB16).
T2 sequence (whole entry): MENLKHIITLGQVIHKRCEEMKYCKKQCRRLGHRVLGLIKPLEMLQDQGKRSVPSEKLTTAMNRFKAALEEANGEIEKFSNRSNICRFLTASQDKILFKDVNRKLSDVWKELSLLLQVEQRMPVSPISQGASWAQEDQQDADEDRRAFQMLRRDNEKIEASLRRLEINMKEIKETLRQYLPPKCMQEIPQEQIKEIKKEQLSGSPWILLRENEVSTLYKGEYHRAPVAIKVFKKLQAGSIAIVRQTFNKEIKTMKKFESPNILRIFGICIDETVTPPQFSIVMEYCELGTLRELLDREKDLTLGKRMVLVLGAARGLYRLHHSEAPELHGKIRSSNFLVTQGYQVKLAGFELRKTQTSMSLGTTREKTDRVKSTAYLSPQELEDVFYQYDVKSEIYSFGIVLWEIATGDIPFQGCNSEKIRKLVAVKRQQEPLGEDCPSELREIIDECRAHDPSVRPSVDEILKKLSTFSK
Nature of the test: Inhibition of MLKL Lys1 labeling site in human A-375 cells at 5 uM by KiNativ Profiling analysis relative to control. The test is classed as cell-based.

Test [5] has as its target Tyrosine-protein kinase HCK (Homo sapiens) (UniProt P08631). Nature of the test: Inhibition of HCK (unknown origin) at 1 uM by Ambit Kinomescan binding assay relative to control; values are per cent of control.
The target in test [6] is BMP-2-inducible protein kinase (Homo sapiens) (UniProt Q9NSY1). In words: Inhibition of BIKE (unknown origin) at 1 uM by Ambit Kinomescan binding assay relative to control; values are per cent of control.
Test [7] has as its target Serine/threonine-protein kinase 4 (Homo sapiens) (UniProt Q13043). In words: Inhibition of MST1 Lys1 labeling site harbouring AIHKETGQIVAIKQVPVESDLQEIIK in human A-375 cells at 0.05 uM by KiNativ Profiling analysis relative to control.
Test [8] addresses T3, Mitogen-activated protein kinase kinase kinase 6 (Homo sapiens) (UniProt O95382).
T3 sequence (whole entry): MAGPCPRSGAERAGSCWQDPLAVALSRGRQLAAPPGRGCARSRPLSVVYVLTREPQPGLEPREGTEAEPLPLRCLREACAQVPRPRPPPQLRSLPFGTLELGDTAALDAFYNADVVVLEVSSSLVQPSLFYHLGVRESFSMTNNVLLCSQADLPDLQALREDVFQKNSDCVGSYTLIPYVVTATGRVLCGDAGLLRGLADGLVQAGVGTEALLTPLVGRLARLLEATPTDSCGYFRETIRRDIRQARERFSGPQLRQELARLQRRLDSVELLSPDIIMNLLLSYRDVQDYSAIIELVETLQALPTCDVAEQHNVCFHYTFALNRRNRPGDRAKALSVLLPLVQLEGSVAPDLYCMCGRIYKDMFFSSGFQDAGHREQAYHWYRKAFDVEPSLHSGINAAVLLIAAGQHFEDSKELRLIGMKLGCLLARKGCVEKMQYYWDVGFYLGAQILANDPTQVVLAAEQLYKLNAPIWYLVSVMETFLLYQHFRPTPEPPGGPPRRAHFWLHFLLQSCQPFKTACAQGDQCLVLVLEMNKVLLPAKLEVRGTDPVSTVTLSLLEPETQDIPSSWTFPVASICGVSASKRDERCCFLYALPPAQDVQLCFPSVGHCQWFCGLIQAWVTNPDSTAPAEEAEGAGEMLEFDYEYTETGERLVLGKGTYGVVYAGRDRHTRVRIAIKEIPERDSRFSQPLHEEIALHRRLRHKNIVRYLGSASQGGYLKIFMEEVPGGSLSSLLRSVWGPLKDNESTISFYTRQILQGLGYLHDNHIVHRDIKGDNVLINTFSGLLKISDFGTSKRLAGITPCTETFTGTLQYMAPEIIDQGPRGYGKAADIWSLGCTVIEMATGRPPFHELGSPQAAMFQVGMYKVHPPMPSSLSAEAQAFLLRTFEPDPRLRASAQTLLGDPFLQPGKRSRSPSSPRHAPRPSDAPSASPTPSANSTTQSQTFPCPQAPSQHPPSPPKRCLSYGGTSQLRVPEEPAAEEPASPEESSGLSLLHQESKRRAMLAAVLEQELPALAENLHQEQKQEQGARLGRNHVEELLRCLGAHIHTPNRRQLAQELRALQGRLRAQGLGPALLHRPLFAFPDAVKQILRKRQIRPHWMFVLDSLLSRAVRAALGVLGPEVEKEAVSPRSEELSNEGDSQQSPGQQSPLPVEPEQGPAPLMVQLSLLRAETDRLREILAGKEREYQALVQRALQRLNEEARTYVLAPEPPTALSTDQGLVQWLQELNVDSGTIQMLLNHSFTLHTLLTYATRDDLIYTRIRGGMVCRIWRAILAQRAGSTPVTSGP
In words: Inhibition of MAP3K6 Lys1 labeling site harbouring IAIKEIPER in human A-375 cells at 5 uM by KiNativ Profiling analysis relative to control. The test is classed as cell-based.

The target in test [9] is Cyclin-dependent kinase 8 (Homo sapiens) (UniProt P49336). In words: Inhibition of CDK8 (unknown origin) at 10 uM by Ambit Kinomescan binding assay relative to control; values are per cent of control.
Cyclin-dependent kinase 8 (Homo sapiens), sequence (P49336 whole entry): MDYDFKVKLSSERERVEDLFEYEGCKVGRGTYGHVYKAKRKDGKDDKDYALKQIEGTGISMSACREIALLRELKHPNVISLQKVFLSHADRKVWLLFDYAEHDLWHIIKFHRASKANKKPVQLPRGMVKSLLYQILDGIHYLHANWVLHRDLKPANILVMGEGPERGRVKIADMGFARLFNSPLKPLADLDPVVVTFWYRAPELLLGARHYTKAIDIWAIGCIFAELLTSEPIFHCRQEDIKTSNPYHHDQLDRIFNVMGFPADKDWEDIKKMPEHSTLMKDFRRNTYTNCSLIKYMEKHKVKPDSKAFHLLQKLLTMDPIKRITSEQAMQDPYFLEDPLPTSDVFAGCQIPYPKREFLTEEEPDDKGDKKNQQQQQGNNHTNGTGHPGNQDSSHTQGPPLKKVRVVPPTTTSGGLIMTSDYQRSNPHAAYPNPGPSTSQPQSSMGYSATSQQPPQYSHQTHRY

Serine/threonine-protein kinase 38 (Homo sapiens), sequence (Q15208 2-465 limits assumed): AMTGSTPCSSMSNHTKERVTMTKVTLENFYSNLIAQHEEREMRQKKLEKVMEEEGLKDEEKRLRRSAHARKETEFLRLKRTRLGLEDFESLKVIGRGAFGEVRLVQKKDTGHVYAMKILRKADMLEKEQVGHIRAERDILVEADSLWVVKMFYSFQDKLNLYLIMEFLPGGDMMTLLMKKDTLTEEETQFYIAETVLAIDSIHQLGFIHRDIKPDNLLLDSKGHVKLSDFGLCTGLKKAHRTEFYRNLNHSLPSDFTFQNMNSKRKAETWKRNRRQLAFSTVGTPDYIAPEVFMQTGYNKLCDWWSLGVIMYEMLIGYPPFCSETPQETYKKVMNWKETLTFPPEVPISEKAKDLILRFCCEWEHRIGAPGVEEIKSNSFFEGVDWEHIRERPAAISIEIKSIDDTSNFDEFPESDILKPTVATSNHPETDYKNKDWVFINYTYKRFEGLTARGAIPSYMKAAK
BMP-2-inducible protein kinase (Homo sapiens), sequence (Q9NSY1 whole entry, looked up): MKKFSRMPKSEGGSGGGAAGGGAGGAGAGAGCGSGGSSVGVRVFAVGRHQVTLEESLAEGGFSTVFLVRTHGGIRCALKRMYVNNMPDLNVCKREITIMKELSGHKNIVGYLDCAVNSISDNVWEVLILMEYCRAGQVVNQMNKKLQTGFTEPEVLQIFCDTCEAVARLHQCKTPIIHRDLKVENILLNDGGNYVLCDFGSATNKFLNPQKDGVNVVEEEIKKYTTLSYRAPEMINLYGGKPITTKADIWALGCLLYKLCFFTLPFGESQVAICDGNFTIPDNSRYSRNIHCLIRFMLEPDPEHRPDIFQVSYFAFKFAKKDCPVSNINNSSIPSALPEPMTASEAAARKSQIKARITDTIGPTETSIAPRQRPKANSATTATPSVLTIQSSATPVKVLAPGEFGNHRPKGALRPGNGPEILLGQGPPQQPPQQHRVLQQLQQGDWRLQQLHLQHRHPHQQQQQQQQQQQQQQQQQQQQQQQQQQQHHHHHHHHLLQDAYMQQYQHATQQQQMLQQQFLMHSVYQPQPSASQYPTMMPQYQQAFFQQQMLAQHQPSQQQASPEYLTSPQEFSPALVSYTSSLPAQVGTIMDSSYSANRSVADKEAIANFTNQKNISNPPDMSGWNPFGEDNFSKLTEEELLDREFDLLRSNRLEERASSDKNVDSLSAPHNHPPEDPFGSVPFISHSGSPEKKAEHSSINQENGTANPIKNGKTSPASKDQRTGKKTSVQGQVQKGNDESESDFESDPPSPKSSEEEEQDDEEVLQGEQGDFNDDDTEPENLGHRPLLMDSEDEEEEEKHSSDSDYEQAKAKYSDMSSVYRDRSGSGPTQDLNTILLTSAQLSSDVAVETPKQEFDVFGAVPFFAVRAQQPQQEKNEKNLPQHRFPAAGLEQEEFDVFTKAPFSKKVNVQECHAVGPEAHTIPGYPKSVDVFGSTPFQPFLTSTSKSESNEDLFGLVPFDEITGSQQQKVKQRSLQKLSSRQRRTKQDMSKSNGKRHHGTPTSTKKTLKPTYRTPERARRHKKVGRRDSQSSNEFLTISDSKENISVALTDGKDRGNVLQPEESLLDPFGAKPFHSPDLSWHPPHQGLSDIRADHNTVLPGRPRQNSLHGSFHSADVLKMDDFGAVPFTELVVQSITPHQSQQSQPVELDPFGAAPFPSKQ
Serine/threonine-protein kinase 38-like (Homo sapiens), sequence (Q9Y2H1 2-464 limits assumed): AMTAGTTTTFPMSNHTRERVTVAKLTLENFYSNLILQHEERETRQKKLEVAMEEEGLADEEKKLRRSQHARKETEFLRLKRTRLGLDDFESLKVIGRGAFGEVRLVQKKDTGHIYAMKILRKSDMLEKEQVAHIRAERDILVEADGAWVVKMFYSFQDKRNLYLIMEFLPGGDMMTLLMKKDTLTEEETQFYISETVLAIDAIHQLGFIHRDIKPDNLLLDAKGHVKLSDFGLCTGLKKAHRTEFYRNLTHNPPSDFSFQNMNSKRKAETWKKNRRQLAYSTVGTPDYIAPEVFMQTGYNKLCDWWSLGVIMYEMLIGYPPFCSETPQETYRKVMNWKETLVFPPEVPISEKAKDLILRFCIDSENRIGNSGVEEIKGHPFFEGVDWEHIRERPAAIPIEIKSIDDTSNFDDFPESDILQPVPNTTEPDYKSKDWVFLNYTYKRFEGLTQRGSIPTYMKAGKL
Tyrosine-protein kinase HCK (Homo sapiens), sequence (P08631 2-526 limits assumed): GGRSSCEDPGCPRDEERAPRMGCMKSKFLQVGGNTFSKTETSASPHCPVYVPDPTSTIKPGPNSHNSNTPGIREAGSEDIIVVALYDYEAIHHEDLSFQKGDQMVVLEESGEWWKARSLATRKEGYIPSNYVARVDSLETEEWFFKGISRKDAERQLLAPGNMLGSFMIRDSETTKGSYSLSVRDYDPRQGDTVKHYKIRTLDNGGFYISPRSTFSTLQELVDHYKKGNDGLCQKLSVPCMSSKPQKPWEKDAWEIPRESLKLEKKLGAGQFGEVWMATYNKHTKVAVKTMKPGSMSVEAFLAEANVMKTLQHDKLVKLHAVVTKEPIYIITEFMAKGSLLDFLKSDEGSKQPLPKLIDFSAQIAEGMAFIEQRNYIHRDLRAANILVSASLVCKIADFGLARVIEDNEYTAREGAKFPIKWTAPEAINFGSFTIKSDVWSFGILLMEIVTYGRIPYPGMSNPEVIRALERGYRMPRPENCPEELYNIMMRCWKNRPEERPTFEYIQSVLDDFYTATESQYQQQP
Serine/threonine-protein kinase 4 (Homo sapiens), sequence (Q13043 whole entry, looked up): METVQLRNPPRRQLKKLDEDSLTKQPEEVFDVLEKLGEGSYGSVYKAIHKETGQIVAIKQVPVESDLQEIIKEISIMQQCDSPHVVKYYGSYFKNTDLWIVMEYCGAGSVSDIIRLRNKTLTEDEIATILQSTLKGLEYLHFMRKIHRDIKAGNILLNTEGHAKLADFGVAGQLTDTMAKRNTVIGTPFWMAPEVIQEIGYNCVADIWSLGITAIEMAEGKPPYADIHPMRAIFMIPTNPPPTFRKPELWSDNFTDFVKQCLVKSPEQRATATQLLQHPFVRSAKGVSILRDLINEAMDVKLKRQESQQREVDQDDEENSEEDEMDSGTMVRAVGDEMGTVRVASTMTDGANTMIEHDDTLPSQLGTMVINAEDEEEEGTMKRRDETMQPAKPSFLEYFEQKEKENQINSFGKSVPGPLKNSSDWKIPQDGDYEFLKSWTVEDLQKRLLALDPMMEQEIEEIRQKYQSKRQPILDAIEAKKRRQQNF

Turning to `CNc1cc(Oc2cc(C(=O)Nc3cc(N4CCN(C)CC4)cc(C(F)(F)F)c3)ccc2C)ncn1`, the values for the inhibition in test [1] and in test [2] were 9.5% and -6.7%, respectively.
With `CCN1CCN(Cc2ccc(NC(=O)c3ccc(C)c(/C=C/c4cnc5[nH]ccc5c4OC)c3)cc2C(F)(F)F)CC1`, the inhibition in test [3] stood at 9.9%; in test [4] it was 3.2%; in test [7], 0.6%. Besides, the residual activity in [5] was 0.5%; in test [6] it was 25%.
Turning to `CCN1CCN(Cc2ccc(NC(=O)c3ccc(C)c(Oc4ccnc5[nH]ccc45)c3)cc2C(F)(F)F)CC1`, in test [8], the inhibition is -0.6%. In test [9], this molecule showed a percent of control of 3.9%.

As usually defined, the inhibition is the relative decrease from the control value, in per cent.

These data come from ChEMBL document CHEMBL5696442, “Discovery of type II inhibitors of TGFβ-activated kinase 1 (TAK1) and mitogen-activated protein kinase kinase kinase kinase 2 (MAP4K2)” (J Med Chem, 2015).
